Laboratory results reported in BindingDB's records for doi:10.1016/j.ejmech.2020.112893 (China Pharmaceutical University, 2021).

Assay: Antagonist activity at PAR4 in human platelet-rich plasma assessed as inhibition of gamma-thrombin-induced platelet aggregation preincubated for 5 mins followed by gamma-thrombin stimulation

| Structure (SMILES) | IC50 |
| --- | --- |
| COc1cc(OCc2nc(-c3ccc(C(=O)N(C)C)cc3)sc2C)c2cc(-c3cn4nc(OC)sc4n3)oc2c1 [US9688695, 66] | 2.1 nM |
| CSc1nn2cc(-c3cc4ccccc4o3)nc2s1 [US9862730, Example 1] | 2600 nM |
